Data set [1] in a line: Dynamic vapour sorption (DVS). It counts as physicochemical. As for the experimental part:
For dynamic vapour sorption (DVS), approximately 10-20 mg of sample was placed into a wire mesh vapour sorption balance pan and loaded into a DVS-1 dynamic vapour sorption balance by Surface Measurement Systems. The sample was subjected to a ramping profile from 20-90% relative humidity (RH) at 10% increments, maintaining the sample at each step until a stable weight had been achieved (99.5% step completion). After completion of the sorption cycle, the sample was dried using the same procedure, but all the way down to 0% RH and finally taken back to the starting point of 20% RH. The weight change during the sorption/desorption cycles were plotted, allowing for the hygroscopic nature of the sample to be determined.

Data set [2] can be described thus: Salt disproportionation study (slurry in deionized water). It counts as physicochemical. Particulars: for pH of the supernatant: deionized water slurry; for Disproportionation study, result of slurrying (XRPD): deionized water, ambient. As for the experimental part:
The pH of the supernatant was also monitored.
The hydrobromide salt was slurried in deionised water at ambient temperature (ca. 22° C.). […] The pH of the supernatant was also monitored.

The nature of data set [3]: Intrinsic dissolution of compressed discs. The format is physicochemical. As for the experimental part: A Sotax AT7 dissolution bath (USP 2, EP 2 apparatus) was used for the dissolution study in which paddles were used to stir the media. All tests were carried out at 37° C. and a paddle speed of 100 rpm.
(§1) Approximately 100-120 mg of each form was compressed into discs by placing the material into a die (diameter: 13 mm) and compressing the die under 5 tons of pressure in a hydraulic press for ca. 2 minutes. A Sotax AT7 (conformed to EP2 and USP2) dissolution instrument was used containing paddles to stir the media at 100 rpm. Dissolution media of pH 3 (1% SDS) and pH 4.5 (1% SDS) were prepared using citrate/phosphate buffer. All materials were tested in 750 ml of the buffer medium. Discs were added at time=0 seconds and allowed to sink to the bottom of the dissolution vessel before stirring began. ca. 1 ml aliquots of media were extracted from the dissolution vessels at times 1, 5, 10, 15, 30, 60, 120, 240 minutes and 24 hours, and tested for dissolved salt concentration by HPLC-UV. The dissolution tests were carried out in duplicate. For both dissolution media, the peak areas for the initial time points (up to 15 minutes), fell below the limit of quantification, however, when plotting Dissolution rate vs. time, the steepest part of the curve occurs during these early time points.
as §1, with “material” for “each form”, “API” for “dissolved salt”

A short description of data set [4]: 1 week stability study (XRPD and HPLC). It counts as physicochemical. Particulars: 1 week. How it is done:
(§2) Resulting solids were analysed by XRPD and HPLC to establish if any changes had occurred.
as §2
The resulting solids were analysed by XRPD and HPLC to establish if any changes had occurred.

The nature of data set [5]: Hydration study (slurry in solvent:water mixtures, XRPD). The format is physicochemical. Particulars: ambient, ca. 3-4 days. As for the experimental part:
The resulting solids were then analyzed by XRPD to determine if any changes had occurred on slurrying.
Slurries of the hydrobromide salt were created in acetone:water mixtures (3%, 5% and 10%) and stirred at ambient for ca. 3 days. The resulting solids were then analysed by XRPD to determine if any changes had occurred on slurrying.
Slurries were created using ca. 200 mg of Form I salt material in 2 mL of the appropriate solvent system. These were stirred at ca. 55° C. for 6 hours.
Slurries were created using ca. 200 mg of Form I salt material in 2 mL of the appropriate solvent system.

Data set [6] is described as follows: Thermodynamic solubility in media of various pH (HPLC; XRPD of excess solids). Particulars: for Thermodynamic Solubility: ca. 24 hours. As for the experimental part:
The remaining solids were also analysed by XRPD analysis to establish if any changes in the solid form occurred.
The remaining solids were also analysed by XRPD analysis to establish if any changes in the solid form occurred. For the buffer solutions, KCl/HCl was used for pH 1 and citrate/phosphate combinations for pH 3, 4.5 and 6.6.
The remaining solids were also analysed by XRPD analysis to establish if any changes in the solid form occurred. For the buffer solutions, KCl/HCl was used for pH 1 and citric acid/sodium citrate combinations for pH 3, 4.5 and 6.2.
The solids were then removed by filtration and tested by XRPD analysis. The mother liquors were analyzed by HPLC to determine API solubility.
For the buffer solutions, KCl/HCl was used for pH 1 and citrate/phosphate combinations for pH 3, 4.5 and 6.6 (10 mM). The pH of the solutions was also measured prior to HPLC analysis.

Data set [7] in a line: 1 week stability of primary screen salts at 40° C./75% RH and 80° C. (open vials, XRPD). Particulars: listed as Besylate (2 equiv.) Form I. The format is physicochemical. How it is done: (open vials). TGA was carried out after the stability studies for samples containing sufficient material.
The next data set relates to mutant EGFR kinase. To be noted: enzymatic and cellular assays; cited from earlier work.
Data set [8] relates to human non-small cell lung cancer cell. Particulars: cited from earlier work.
Data set [9] can be described thus: Slurry in pH 6.2 aqueous medium (conversion to unknown solid form). The format is physicochemical. Particulars: slurry as for the hydrobromide at pH 6.2, XRPD. How it is done: In attempts to characterize this form, as well as establish the rate of conversion to this form while slurrying the material, the following experiments were carried out. Initially, approximately 100 mg of the hydrobromide (1 equiv.) material was slurried in a pH 6.2 aqueous solution at ambient and XRPD analysis was carried out at time points 5 min., 1 hr, 2 hrs, 4 hrs and 8 hrs. Further analysis was then also carried out on the converted material.

The subject of data set [10] is human non-small cell lung cancer cell. Particulars: cited from earlier work. The source holds these as a separate data set.
[11] abbreviates: 40° C./75% RH, closed (crimped) vial.

Consider `C=CC(=O)Nc1cccc(Nc2nc(Nc3ccc(N4CCN(C(C)=O)CC4)cc3OC)ncc2C(F)(F)F)c1.O=S(=O)(O)c1ccccc1.O=S(=O)(O)c1ccccc1` [bis-besylate salt], for which, in data set [1] (after DVS cycles), the “post DVS XRPD analysis (polymorphic form)” value was “change in polymorphic form”. Also, the “water uptake (DVS)” value in [1] (between 20 and 70% RH) is recorded as “ca. 2.2%”. Further, the “pH of the supernatant” value is recorded as “pH 2-3” in data set [2] (1 hr), “pH 1-2” in data set [2] (24 hrs) and “pH 1-2” in [2] (48 hrs). The “Disproportionation study, result of slurrying (XRPD)” value in [2] (1 hr) is given as “Yellow gum present”; in data set [2] (24 hrs) it was “Different from starting material, appears to”; in [2] (48 hrs) it was “Different from starting material, appears to”. The intrinsic dissolution value entry in [3] (pH 3.0 (1% SDS), early time points, tablet 1) is on record as “approximately 0.36 mg/cm^2/min”; in data set [3] (pH 3.0 (1% SDS), early time points, tablet 2), roughly 0.38 mg/cm^2/min; in data set [3] (pH 3.0 (1% SDS), later time points, tablet 1) it was 0.08 mg/cm^2/min; in data set [3] (pH 3.0 (1% SDS), later time points, tablet 2) it was 0.07 mg/cm^2/min; in [3] (pH 4.5 (1% SDS), early time points, tablet 1), “approximately 0.61 mg/cm^2/min”; in [3] (pH 4.5 (1% SDS), early time points, tablet 2) it was “approximately 0.61 mg/cm^2/min”. The intrinsic dissolution value is reported as 0.09 mg/cm^2/min in data set [3] (pH 4.5 (1% SDS), later time points, tablet 1) and 0.08 mg/cm^2/min in data set [3] (pH 4.5 (1% SDS), later time points, tablet 2). For the same compound, the “HPLC purity after storage” value in [4] (setting [11]) was 97.35%; in [4] (40° C./75% RH, open vial), 97.22%; in [4] (80° C., open vial), 97.20%. The XRPD after storage result in data set [4] (setting [11]) is listed as “No change in polymorphic form”; in data set [4] (40° C./75% RH, open vial), “Change in polymorphic form,”; in [4] (80° C., open vial) it was “Corresponds predominantly with input”. The “Hydration study, result of slurrying” value in [5] (Acetone:water (3%)) is listed as “Corresponds with the input bis-”; in data set [5] (Acetone:water (10%)), “Different from the bis-besylate input”. Moreover, the “XRPD of excess solids” value in data set [6] (pH 1.0, KCl/HCl) was “Diffractogram corresponds with the hydrated”; in data set [6] (pH 3.0, Citrate/Phosphate), “Change in diffractogram - does not correspond”; in [6] (pH 3.0, KHP/HCl), “Change in diffractogram - does not correspond”; in [6] (pH 4.5, Citrate/Phosphate) it was “Change in diffractogram - does not correspond”; in [6] (pH 4.5, KHP/NaOH) it was “Change in diffractogram - does not correspond”; in [6] (pH 6.6, Citrate/Phosphate), “Change in diffractogram - does not correspond”. Further, the “XRPD of excess solids” value in [6] (pH 6.6, Phosphate/NaOH) is recorded as “Change in diffractogram - does not correspond”. Further, the “Thermodynamic Solubility” value in [6] (pH 1.0, KCl/HCl buffer) amounted to 4930 µg/mL; in data set [6] (pH 3.0, Citrate/Phosphate), 240 µg/mL; in [6] (pH 3.0, KHP/HCl), 260 µg/mL; in data set [6] (pH 4.5, Citrate/Phosphate), 430 µg/mL; in data set [6] (pH 4.5, KHP/NaOH) it was 100 µg/mL; in [6] (pH 6.6, Citrate/Phosphate), 660 µg/mL. For the same compound, in data set [6] (pH 6.6, Phosphate/NaOH), the “Thermodynamic Solubility” value amounted to 170 µg/mL. Moreover, the “Stability 40° C./75% RH (open conditions)” value in data set [7] was “Solid/gum present”.

As for `C=CC(=O)Nc1cccc(Nc2nc(Nc3ccc(N4CCN(C(C)=O)CC4)cc3OC)ncc2C(F)(F)F)c1` [Compound 1, N-(3-(2-(4-(4-acetylpiperazin-1-yl)-2-methoxyphenylamino)-5-(trifluoromethyl)pyrimidin-4-ylamino)phenyl)acrylamide], the “inhibition of mutant EGFR kinase” value with mutant EGFR kinase was “selective covalent, irreversible inhibition”. The “inhibition of cell proliferation in vivo” value in data set [8] is “inhibit”. In addition, the “solid form after slurry experiment” value in data set [9] is “remained as the free base Form I”. Also, the “inhibition of cell proliferation in vitro” value in data set [10] is recorded as “inhibit”.

The values above are taken from US10570099B2, “Salts of an epidermal growth factor receptor kinase inhibitor” (Celgene CAR LLC, priority 2012, dated 2020).
